According to US20240383971A1, “Anti-DFS70 Autoantibodies and methods of attenuating formation of nets” (McMaster University, priority 2023, published 2024):

Test system: neutrophils isolated from healthy donors
Assay: In vitro NETosis assay (SEM images, MATLAB quantification)
Type: cell-based, human
Settings: healthy donor neutrophils pooled n=4, 6 hrs

| Compound | induction of NETosis in healthy neutrophils |
| --- | --- |
| CNc1ccc2oc(C[C@H]3O[C@@]4(CC[C@H]3C)O[C@H]([C@H](C)C(=O)c3ccc[nH]3)[C@H](C)C[C@H]4C)nc2c1C(=O)O [A23187] | stimulated to NETosis |
| CCCCCCCCCCCCCC(=O)O[C@@H]1[C@@H](C)[C@@]2(O)[C@@H](C=C(CO)C[C@]3(O)C(=O)C(C)=C[C@@H]23)[C@@H]2C(C)(C)[C@]12OC(C)=O [PMA, Phorbol 12-myristate 13-acetate] | stimulated to NETosis |
